Test results from US20050064510A1, “Ligand analysis” (priority 2003, published 2005).

These compounds were tested against T1, Serine Kinase Zap-70 (Homo sapiens, UniProt P43403) (assay: AS-MS dissociation kinetics after quench with excess Staurosporine). Conditions: read-out: Dissociation rate ks2 (converted).
T1 sequence (P43403 1-619): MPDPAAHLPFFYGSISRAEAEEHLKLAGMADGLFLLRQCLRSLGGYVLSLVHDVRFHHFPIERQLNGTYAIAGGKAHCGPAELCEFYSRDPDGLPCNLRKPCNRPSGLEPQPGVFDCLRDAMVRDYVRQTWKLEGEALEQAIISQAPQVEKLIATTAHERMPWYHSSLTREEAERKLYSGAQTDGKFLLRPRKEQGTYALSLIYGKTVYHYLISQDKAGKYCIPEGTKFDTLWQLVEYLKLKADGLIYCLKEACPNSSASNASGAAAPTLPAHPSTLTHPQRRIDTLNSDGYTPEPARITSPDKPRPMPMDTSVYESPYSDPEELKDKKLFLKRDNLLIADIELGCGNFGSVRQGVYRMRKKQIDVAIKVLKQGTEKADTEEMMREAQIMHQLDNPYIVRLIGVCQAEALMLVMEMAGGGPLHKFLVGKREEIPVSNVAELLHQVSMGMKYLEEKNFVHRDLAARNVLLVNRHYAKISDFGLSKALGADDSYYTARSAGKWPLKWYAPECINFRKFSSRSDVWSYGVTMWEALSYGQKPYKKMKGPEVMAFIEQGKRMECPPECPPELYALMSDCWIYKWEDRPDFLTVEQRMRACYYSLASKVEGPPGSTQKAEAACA
Format: binding
Experimental: A mixture of 9 μM Zap-70 and 1 μM NGD-6380 is prepared and incubated at room temperature for 30 minutes, a time sufficient for the mixture to reach equilibrium of bound and unbound components. […] The resulting dissociation of NGD-6380 is measured over time at intervals of 20, 30, 40, 60, 70, 80, and 100 minutes. The dissociation of NGD-6380 is measured in the following manner. […] Any amount of NGD-6380 which is not bound to the Zap-70 is separated from the Zap-70-NGD-6380 complex by the size exclusion step. […] Thus, the dissociation of […] is seen by the decreasing amount of the signal response of the NGD-6380 over time. The decrease in the signal response of the NGD-6380 is plotted as a function of time and the experimental data is fit to the exponential decay function of formula (XVIII) using the program Mathematical (Wolfram Research Inc., version 4.1). [ES]=[ES]0e^-ks2·t formula (XVIII) A mixture of 9 μM Zap-70 and 1 μM of a mixture of the ligands depicted in Table 3 is prepared and incubated at room temperature for 30 minutes, a time sufficient for the mixture to reach equilibrium of bound and unbound components. […] The decrease in the signal response of the ligands is plotted as a function of time and the experimental data is fit to the exponential decay function of formula (XVIII) using the program Mathematica®. [ESi]=[[…] formula (XVIII)

Going from CN(Cc1ccccc1)c1cc(C(=O)N2CCC[C@H]2CN2CCCC2)c2cc(-c3ccc4c(c3)OCO4)ccc2n1 [NGD-6073] to CCN(Cc1ccccc1)c1cc(C(=O)N2CCC[C@H]2CN2CCCC2)c2cc(-c3ccc4c(c3)OCO4)ccc2n1 [NGD-6423], the koff falls from 0.000117 s⁻¹ to 6.5e-05 s⁻¹ (1.8-fold).

Compared with O=C(c1cc(NCc2cccc(F)c2)nc2ccc(-c3ccc4c(c3)OCO4)cc12)N1CCC[C@H]1CN1CCCC1 [NGD-6367], O=C(c1cc(NCc2ccc(Cl)cc2)nc2ccc(-c3ccc4c(c3)OCO4)cc12)N1CCC[C@H]1CN1CCCC1 [NGD-6371] is 1.8-fold lower in koff: 0.000493 s⁻¹ for the first, 0.000275 s⁻¹ for the second.

O=C(c1cc(NCc2ccc(C(F)(F)F)cc2)nc2ccc(-c3ccc4c(c3)OCO4)cc12)N1CCC[C@H]1CN1CCCC1 [NGD-6380] and O=C(c1cc(NCc2ccc(C(F)(F)F)cc2)nc2ccc(-c3ccc4c(c3)OCCO4)cc12)N1CCC[C@H]1CN1CCCC1 [NGD-6862] are within 1.5-fold of each other in koff: 0.000138 s⁻¹ for the first, 0.000107 s⁻¹ for the second.

Going from CC(CNc1cc(C(=O)N2CCC[C@H]2CN2CCCC2)c2cc(-c3ccc4c(c3)OCO4)ccc2n1)c1ccccc1 (stereo partly drawn) [NGD-6390] to CN(Cc1ccc(Cl)c(Cl)c1)c1cc(C(=O)N2CCC[C@H]2CN2CCCC2)c2cc(-c3ccc4c(c3)OCO4)ccc2n1 [NGD-6432], the koff falls from 0.00021 s⁻¹ to 0.000117 s⁻¹ (1.8-fold).

What follows are compounds tested against T2, muscarinic acetylcholine receptor M2 (Cavia porcellus, UniProt H0VRN8) (assay: Tissue-based assay for M2 antagonism). Conditions: not given.
T2 sequence (H0VRN8 1-466): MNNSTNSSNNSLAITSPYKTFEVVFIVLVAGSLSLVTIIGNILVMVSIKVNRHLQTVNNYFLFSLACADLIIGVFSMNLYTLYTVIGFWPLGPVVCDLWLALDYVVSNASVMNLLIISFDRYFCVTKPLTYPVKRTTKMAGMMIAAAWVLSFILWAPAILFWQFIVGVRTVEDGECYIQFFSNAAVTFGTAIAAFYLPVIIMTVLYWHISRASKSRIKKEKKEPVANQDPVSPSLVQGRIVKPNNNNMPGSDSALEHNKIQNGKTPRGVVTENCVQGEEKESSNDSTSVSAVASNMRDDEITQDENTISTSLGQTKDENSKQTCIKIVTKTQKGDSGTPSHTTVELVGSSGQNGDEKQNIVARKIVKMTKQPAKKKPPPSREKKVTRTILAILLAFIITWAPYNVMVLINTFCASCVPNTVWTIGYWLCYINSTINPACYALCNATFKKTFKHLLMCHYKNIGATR

O=C(N[C@H]1CCCC[C@@H]1OCc1ccccc1)c1coc(-c2ccc(C(=O)N3CCC(N4CCCC4)CC3)cc2)n1 [NGD-3350] was tested, and the “activity in tissue” value was “significant activity”.
